# Target: T1, multidrug resistance associated protein 4 (MRP4) (Homo sapiens, UniProt O15439)
# T1 sequence (O15439 1-1325): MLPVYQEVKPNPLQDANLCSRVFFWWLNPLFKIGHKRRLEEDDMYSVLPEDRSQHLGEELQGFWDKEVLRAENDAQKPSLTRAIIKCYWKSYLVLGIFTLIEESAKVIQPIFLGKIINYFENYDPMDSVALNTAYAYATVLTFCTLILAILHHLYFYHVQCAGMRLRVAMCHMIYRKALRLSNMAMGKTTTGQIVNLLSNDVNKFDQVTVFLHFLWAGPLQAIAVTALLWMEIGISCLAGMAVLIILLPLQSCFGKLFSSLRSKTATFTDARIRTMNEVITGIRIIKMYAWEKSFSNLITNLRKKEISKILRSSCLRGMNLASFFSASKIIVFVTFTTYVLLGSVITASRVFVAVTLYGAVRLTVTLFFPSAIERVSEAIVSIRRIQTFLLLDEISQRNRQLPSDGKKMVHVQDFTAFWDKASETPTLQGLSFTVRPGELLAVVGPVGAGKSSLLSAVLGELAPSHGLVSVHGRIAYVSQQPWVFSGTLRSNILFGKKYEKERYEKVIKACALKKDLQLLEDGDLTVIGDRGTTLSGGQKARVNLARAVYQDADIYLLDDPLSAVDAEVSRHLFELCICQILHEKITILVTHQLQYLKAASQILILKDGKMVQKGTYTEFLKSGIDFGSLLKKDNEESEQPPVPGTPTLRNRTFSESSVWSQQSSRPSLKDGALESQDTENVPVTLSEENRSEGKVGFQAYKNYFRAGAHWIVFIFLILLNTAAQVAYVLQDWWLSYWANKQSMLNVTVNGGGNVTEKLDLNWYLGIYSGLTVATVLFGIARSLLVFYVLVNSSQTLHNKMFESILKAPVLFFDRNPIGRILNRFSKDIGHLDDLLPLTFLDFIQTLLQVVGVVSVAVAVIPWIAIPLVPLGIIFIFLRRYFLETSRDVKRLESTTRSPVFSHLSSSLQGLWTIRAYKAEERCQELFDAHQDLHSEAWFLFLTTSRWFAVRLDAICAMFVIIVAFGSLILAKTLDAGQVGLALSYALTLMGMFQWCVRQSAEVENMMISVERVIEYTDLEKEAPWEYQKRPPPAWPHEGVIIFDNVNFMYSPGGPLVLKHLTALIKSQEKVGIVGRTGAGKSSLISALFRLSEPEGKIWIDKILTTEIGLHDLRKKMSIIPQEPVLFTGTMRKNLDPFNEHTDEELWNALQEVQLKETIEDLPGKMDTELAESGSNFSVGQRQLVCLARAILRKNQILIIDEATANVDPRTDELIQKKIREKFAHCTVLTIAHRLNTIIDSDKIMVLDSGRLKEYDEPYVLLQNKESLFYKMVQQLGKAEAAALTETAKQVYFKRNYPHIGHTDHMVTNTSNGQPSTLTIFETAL
# Type: biochemical
structure (smiles),measurement,value
"CC(=O)Nc1ccc(O)c(SC[C@H](N)C(=O)O)c1 [APAP-CYS, acetaminophen cysteine]",IC50,125 µM
